Data on 31 compounds can be found in patent US7666635B2, “Process for the preparation of amides” (priority 1997, dated 2010).

For assay [1], the system named is NA40 nitrile hydratase (resting NA40 cells). Nature of the assay: Substrate specificity of resting NA40 cells. Type of assay: cell-based, Amycolatopsis NA40. The note with it: resting NA40 cells, 20° C., 10 min; 3-cyanopyridine = 100; substrate concentration per Table 8. The method, then: (3) For determination of the activity of NA40 with respect to a number of substrates, cells having a dry weight of 0.0388 mg were incubated in the buffer described above. The reaction was started by addition of the appropriate substrate and incubated at 20° C. with shaking for 10 min. The reaction was stopped by addition of 0.2 ml of 2 N HCl and the reaction mixture was briefly centrifuged. The supernatant was analysed by means of HPLC or gas chromatography.

Assay [2] concerns purified nitrile hydratase from NA40. Nature of the assay: Substrate specificity of the purified nitrile hydratase. Type of assay: biochemical, Amycolatopsis NA40. The note with it: purified enzyme; 3-cyanopyridine = 100. The method, then: The substrate specificity was determined analogously to Example 2 (1).
1.7 Units of enzyme were added to the reaction mixture (2.0 ml). The reaction mixture contained the respective substrate in 45 mM phosphate buffer (pH 7.0).

In assay [3] the test system is Rhodococcus rhodochrous J1. Kind of assay: Substrate specificity of the Rhodococcus strains. Type of assay: cell-based. The note with it: Rhodococcus rhodochrous J1; 3-cyanopyridine = 100. The method, then:
(§1) Rhodococcus rhodochrous J1 was cultured for 72 h in the medium described in EP-A 0 307 926. The microorganisms Rhodoccus GF674, GF578, GF270 and GF376 were cultured in the following media at pH 7.0 for up to 96 h:
(§2) The substrate specificity is summarized as relative activity in Table 15.

Another assay has as its system Rhodococcus GF376. Kind of assay: Substrate specificity of the Rhodococcus strains. Type of assay: cell-based. The note with it: Rhodococcus GF376; 3-cyanopyridine = 100. Here is the method: as §1
(§3) Rhodoccus GF674 in a medium comprising yeast extract 1.0 g/l, fructose 5.0 g/l, malt extract 10.0 g/l, acetamide 5.0 g/l, KH2PO4 2.0 g/l, MgSO47H2O 0.5 g/l and CoCl2.6H2O 10.0 mg. Rhodoccus GF578 in a medium containing yeast extract 1.0 g/l, fructose 15.0 g/l, malt extract 10.0 g/l, acetamide 25.0 g/l, KH2PO4 2.0 g/l, MgSO47H2O 0.5 g/l and CoCl2.6H2O 5.0 mg. […] Rhodoccus GF3 76 in a medium containing yeast extract 1.0 g/l, sodium citrate 10.0 g/l, malt extract 15.0 g/l, butyramide 7.5 g/l, KH2PO4 2.0 g/l, MgSO4.7H2O 0.5 g/l and CoCl2.6H2O 15.0 mg.
as §2

A further assay concerns Rhodococcus GF578. Kind of assay: Substrate specificity of the Rhodococcus strains. Type of assay: cell-based. The note with it: Rhodococcus GF578; 3-cyanopyridine = 100. Here is the method:
as §1, §3, §2

The next assay relates to Rhodococcus GF674. Kind of assay: Substrate specificity of the Rhodococcus strains. The assay is classed as cell-based. The note with it: Rhodococcus GF674; 3-cyanopyridine = 100. Here is the method: as §1, §3, §2
The subject of the next assay is Rhodococcus GF270. Nature of the assay: Substrate specificity of the Rhodococcus strains. Type of assay: cell-based. The note with it: Rhodococcus GF270; 3-cyanopyridine = 100. The method, then: as §1, §3, §2
The subject of the next assay is Amycolatopsis NA40. Nature of the assay: Effects of inducers and cofactors on growth and nitrile hydratase activity in the basal medium. Type of assay: cell-based. The method, then:
(1) For determination of the nitrile hydratase activity, a reaction mixture (2 ml) containing 3-cyanopyridine (1.0 M, 1.0 ml), potassium phosphate buffer (pH 7.0, 0.1 M, 0.5 ml) and 0.5 ml of cell suspension were incubated at 20° C. for 30 min with stirring. The reaction was stopped by addition of 0.2 ml of 3 N HCl. After centrifuging briefly, the nicotinamide formed was determined by means of HPLC (Shimadzu SPD 6A system using a C18 column (Develosil ODS-HG-5. […]); eluent: 10 mM KH2PO4/H3PO4 (pH 2.8)/acetonitrile 9:1 (v/v); flow rate: 1 ml/min; the absorption was measured at 230 nm). The specific activity was expressed as µmol of nicotinamide formed/ml/min/OD610 nm.
The reaction rates of aliphatic nitriles in the enrichment medium (Table 1) with isolated bacteria is summarized in Table 5, the effects of inducers and cofactors in the basal medium (Table 2) is summarized in Table 4 and the activity comparison of Amycolatopsis to Rhodoccus in the basal medium (Table 2) is summarized in Table 6.

For assay [4], the system named is purified nitrile hydratase from NA40. The assay is classed as biochemical, Amycolatopsis NA40. Here is the method: The effect of various inhibitors was determined.
Where [5] appears, read: substance added as inducer to basal medium.
Where [6] appears, read: substance added as inducer to basal medium, nicotinamide formed from 3-cyanopyridine, 20° C.
Setting [7] is: inhibitor 1 mM, without inhibitor = 100.
Setting [8] is: substance added as cofactor to basal medium.

Structures are written as SMILES. Counter-ions that a name gives are not always drawn. Like-named read-outs stand apart in the source and are kept apart here.

Turning to `C=C(C)C#N` [Methacrylonitrile], the Relative activity in [1] is 130%. Also, the “Relative activity, Enzyme reaction” value in [2] is recorded as 125%. Also, the “relative activity (substrate specificity)” value came to 86.9% in [3]; 0% in the assay on Rhodococcus GF376; 122% in the assay on Rhodococcus GF578; 176% in the assay on Rhodococcus GF674; 0% with Rhodococcus GF270.
Take `C=C(C)C(N)=O` [Methacrylamide]: in the assay on Amycolatopsis NA40 (setting [5]), the “Growth (OD610 nm)” value was 3.33 OD610 nm and the Specific activity came to 0.74 μmol/ml/min/OD. Further, the Total activity in the assay with Amycolatopsis NA40 (setting [6]) is 2.46 µmol/mL/min.
Consider `NNC(N)=O` [Semicarbazide], for which the Relative activity in assay [4] (setting [7]) was 82%.
Regarding `O=C(O)CN(CCN(CC(=O)O)CC(=O)O)CC(=O)O` [EDTA, ethylenediaminetetra-acetic acid], the Relative activity in assay [4] was determined as 115%.
For `O.O.O.O.O.O.O.O=S(=O)([O-])[O-].[Fe+2]` [FeSO4•7H2O], in the assay with Amycolatopsis NA40 (setting [8]), the “Growth (OD610 nm)” value was 8.32 OD610 nm, the Specific activity is reported as 0.40 μmol/ml/min/OD and the Total activity stood at 3.36 µmol/mL/min.
For `NC(N)=O` [Urea], in the assay with Amycolatopsis NA40 (setting [5]), the “Growth (OD610 nm)” value came to 1.72 OD610 nm and the Specific activity is listed as 1.73 μmol/ml/min/OD. The same compound displayed a Total activity in the assay with Amycolatopsis NA40 (setting [6]) of 2.97 µmol/mL/min.
As for `N#Cc1cccc(Cl)c1` [m-Chlorobenzonitrile], the Relative activity in assay [1] came to 75%. The “Relative activity, Enzyme reaction” value in assay [2] is given as 90%. The “relative activity (substrate specificity)” value in assay [3] was found to be 43%; in the assay with Rhodococcus GF376, 8.63%; in the assay with Rhodococcus GF578 it was 28.9%; in the assay on Rhodococcus GF674, 27.8%; in the assay on Rhodococcus GF270, 8.41%.
Take `O=C(O)c1cc[c]([Hg][Cl])cc1` [4-Chloromercurobenzoic acid]: the Relative activity in assay [4] (inhibitor 0.1 mM, without inhibitor = 100) amounted to 69%.
As to `CC=CC#N` [Crotononitrile], the Relative activity in assay [1] was 52%. The “Relative activity, Enzyme reaction” value in assay [2] turned out to be 67%. The “relative activity (substrate specificity)” value in assay [3] is recorded as 78.2%; in the assay with Rhodococcus GF376 it was 110%; in the assay on Rhodococcus GF578, 124%; with Rhodococcus GF674 it was 98.0%; in the assay on Rhodococcus GF270, 37.1%.
Turning to `c1cnc2c(c1)ccc1cccnc12` [o-Phenanthroline], the Relative activity in assay [4] (setting [7]) is recorded as 89%.
As for `N#Cc1ccccc1Cl` [o-Chlorobenzonitrile], the Relative activity in [1] was determined as 96%. The “Relative activity, Enzyme reaction” value in assay [2] was found to be 127%. For the same compound, the “relative activity (substrate specificity)” value was determined as 2.8% in [3]; 0% with Rhodococcus GF376; 49.0% with Rhodococcus GF578; 64.8% with Rhodococcus GF674; 0% in the assay on Rhodococcus GF270.
As for `N#Cc1cccnc1Cl` [2-Chloro-3-cyanopyridine], the Relative activity in assay [1] was determined as 126%. Moreover, the “Relative activity, Enzyme reaction” value in assay [2] was 90%.
For the compound `Oc1cccc2cccnc12` [8-Hydroxyquinoline], the Relative activity in assay [4] turned out to be 110%.
As to `N#Cc1ccccn1` [2-Cyanopyridine], in assay [1], the Relative activity worked out at 128%. In assay [2], the “Relative activity, Enzyme reaction” value is 221%. In addition, the “relative activity (substrate specificity)” value came to 45% in assay [3]; 54.3% in the assay on Rhodococcus GF376; 200% in the assay with Rhodococcus GF578; 308% with Rhodococcus GF674; 15.7% in the assay on Rhodococcus GF270.
Turning to `O=S(=O)(O)c1cc(O)c(O)c(S(=O)(=O)O)c1` [Tiron, disodium salt of 4,5-dihydroxy-1,3-benzene-disulphonic acid], in [4] (setting [7]), the Relative activity is listed as 110%.
Consider `O=C1CCCCCN1` [ε-Caprolactam], for which, in the assay on Amycolatopsis NA40 (setting [5]), the “Growth (OD610 nm)” value is reported as 0.66 OD610 nm and the Specific activity stood at 14.5 μmol/ml/min/OD. The compound also returned a Total activity with Amycolatopsis NA40 (setting [6]) of 9.52 µmol/mL/min.
With `C/C=C/C(N)=O` [Crotonamide], in the assay with Amycolatopsis NA40 (setting [5]), the “Growth (OD610 nm)” value was determined as 3.41 OD610 nm and the Specific activity was found to be 6.72 μmol/ml/min/OD. The compound further returned a Total activity with Amycolatopsis NA40 (setting [6]) of 22.9 µmol/mL/min.
As for `NO` [Hydroxylamine], the Relative activity in assay [4] (setting [7]) is recorded as 37%.
On to `CCCC#N` [n-Butyronitrile], for which, in [1], the Relative activity was found to be 194%. Moreover, in assay [2], the “Relative activity, Enzyme reaction” value was found to be 101%. The “relative activity (substrate specificity)” value in assay [3] came out at 352%; with Rhodococcus GF376 it was 195%; in the assay with Rhodococcus GF578, 368%; in the assay on Rhodococcus GF674 it was 491%; in the assay on Rhodococcus GF270, 181%.
`N#Cc1ccccc1` [Benzonitrile]: the Relative activity in [1] amounted to 51%. Besides, the “Relative activity, Enzyme reaction” value in assay [2] was 64%. Also, the “relative activity (substrate specificity)” value worked out at 27% in assay [3]; 57.2% in the assay with Rhodococcus GF376; 85.1% in the assay with Rhodococcus GF578; 138% in the assay on Rhodococcus GF674; 13.4% in the assay on Rhodococcus GF270.
Consider `NNc1ccccc1` [Phenylhydrazine], for which the Relative activity in assay [4] (setting [7]) is on record as 8%.
`CC#N` [Acetonitrile]: the “relative activity (substrate specificity)” value in assay [3] is recorded as 608%; in the assay on Rhodococcus GF376, 806%; in the assay with Rhodococcus GF578, 347%; with Rhodococcus GF674 it was 1.49%; in the assay on Rhodococcus GF270 it was 659%.
As to `O=C(O)CI` [Iodoacetic acid], the Relative activity in assay [4] is 39%.
With `CCC#N` [Propionitrile], the Relative activity in [1] amounted to 105%. For the same compound, in [2], the “Relative activity, Enzyme reaction” value was determined as 222%. Further, the “relative activity (substrate specificity)” value is listed as 434% in assay [3]; 245% in the assay on Rhodococcus GF376; 132% in the assay on Rhodococcus GF578; 274% with Rhodococcus GF674; 37.3% in the assay with Rhodococcus GF270.
`CCN1C(=O)C=CC1=O` [N-ethylmaleimide]: the Relative activity in [4] (setting [7]) is given as 97%.
Still for that read-out and setting: in the case of `CCN(CC)C(=S)S` [Diethyl dithiocarbamate] it was 89%.
With `CCCC(N)=O` [Butyramide], in the assay with Amycolatopsis NA40 (setting [5]), the “Growth (OD610 nm)” value is 2.19 OD610 nm and the Specific activity worked out at 0.88 μmol/ml/min/OD. Also, the Total activity in the assay on Amycolatopsis NA40 (setting [6]) was determined as 0.19 µmol/mL/min.
For `CCC(N)=O` [Propionamide], in the assay with Amycolatopsis NA40 (setting [5]), the “Growth (OD610 nm)” value amounted to 1.91 OD610 nm and the Specific activity is on record as 0.48 μmol/ml/min/OD. Moreover, in the assay on Amycolatopsis NA40 (setting [6]), the Total activity was 0.92 µmol/mL/min.
For the compound `N#Cc1ccncc1` [4-Cyanopyridine], the Relative activity in assay [1] stood at 168%. In addition, the “Relative activity, Enzyme reaction” value in assay [2] came out at 179%. For the same compound, the “relative activity (substrate specificity)” value worked out at 70% in [3]; 79.8% in the assay with Rhodococcus GF376; 167% in the assay with Rhodococcus GF578; 231% in the assay with Rhodococcus GF674; 55.6% in the assay on Rhodococcus GF270.
On to `O.O.O.O.O.O.[Cl-].[Cl-].[Co+2]` [CoCl2•6H2O], for which, in the assay with Amycolatopsis NA40 (setting [8]), the “Growth (OD610 nm)” value worked out at 8.41 OD610 nm, the Specific activity was 5.68 μmol/ml/min/OD and the Total activity came out at 47.8 µmol/mL/min.
With `c1ccc(-c2ccccn2)nc1` [α,α′-Dipyridyl], the Relative activity in assay [4] (setting [7]) was 100%.
